Where two headings read alike, the source gives them in different places.
Key:
F. pringlei PEPC = molecular target: T1, F. pringlei PEPC (Flaveria pringlei, UniProt Q01647); assay: PEPC coupled spectrophotometric assay, C3 PEPC; format: biochemical
T1 construct: the full-length ppcA gene of PEPC from F. trinervia (EMBL-Bank X61304) and F. pringlei (EMBL-Bank Z48966) were cloned in pETEV16b; made in house; host or cells: Escherichia coli BL21-Gold(DE3)
T1 sequence (Q01647 1-967): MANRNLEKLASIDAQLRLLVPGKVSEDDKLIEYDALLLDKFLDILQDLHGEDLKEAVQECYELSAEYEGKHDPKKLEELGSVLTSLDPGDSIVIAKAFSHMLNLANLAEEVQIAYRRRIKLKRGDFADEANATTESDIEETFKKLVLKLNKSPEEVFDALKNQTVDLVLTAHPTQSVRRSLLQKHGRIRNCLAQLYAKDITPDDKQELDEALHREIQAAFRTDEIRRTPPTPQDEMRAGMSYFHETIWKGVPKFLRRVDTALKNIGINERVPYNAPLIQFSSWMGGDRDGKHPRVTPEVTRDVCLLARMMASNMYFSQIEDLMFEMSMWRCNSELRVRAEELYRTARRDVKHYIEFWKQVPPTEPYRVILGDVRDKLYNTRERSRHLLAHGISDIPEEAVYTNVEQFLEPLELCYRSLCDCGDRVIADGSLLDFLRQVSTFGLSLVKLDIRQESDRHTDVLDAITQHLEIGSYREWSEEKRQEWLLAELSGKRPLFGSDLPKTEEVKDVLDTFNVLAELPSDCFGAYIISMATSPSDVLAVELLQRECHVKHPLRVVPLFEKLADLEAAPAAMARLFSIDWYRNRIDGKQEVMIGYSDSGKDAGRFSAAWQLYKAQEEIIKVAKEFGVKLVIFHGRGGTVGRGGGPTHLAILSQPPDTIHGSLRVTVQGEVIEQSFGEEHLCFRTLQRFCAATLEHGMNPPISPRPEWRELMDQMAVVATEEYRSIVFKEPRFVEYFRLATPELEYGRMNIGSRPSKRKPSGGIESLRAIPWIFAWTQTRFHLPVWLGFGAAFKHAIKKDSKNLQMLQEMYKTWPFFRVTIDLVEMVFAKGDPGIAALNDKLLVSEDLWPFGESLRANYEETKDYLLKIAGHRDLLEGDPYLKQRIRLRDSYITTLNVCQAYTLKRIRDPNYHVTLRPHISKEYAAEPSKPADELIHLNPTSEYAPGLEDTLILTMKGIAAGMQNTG
Experimental: The IC50 values of small molecule compounds on F. pringlei and F. trinervia PEPCs were determined using PEPC coupled spectrophotometric assay. The amount of NADH oxidized by NADH-malate dehydrogenase was measured by the decrease in absorbance at 340 nm in a Beckman DU-800 spectrophotometer, thus the value is in proportion to the corresponding substrate conversion of the enzyme. The reaction mixture included the PEPC enzymes (0.05 U), NADH (150 μM), malate dehydrogenase (2 U) and different concentration of compounds in the buffer containing 50 mM HEPES/KOH pH 7.5, 10 mM MgCl2, 10 mM KHCO3 in a final volume of 600 μl at 25 °C. The reactions were started by adding two folds of the Km value of PEP for each enzyme. The data were analyzed using GraFit (Erithacus Software, UK).

[1] = molecular target: T2, wild-type C4 PEPC from F. trinervia (Flaveria trinervia, UniProt P30694); assay: Isothermal titration calorimetry, wild-type C4 PEPC; format: binding
T2 construct: the full-length ppcA gene of PEPC from F. trinervia (EMBL-Bank X61304); made in house; host or cells: Escherichia coli BL21(DE3)
T2 sequence (P30694 1-966): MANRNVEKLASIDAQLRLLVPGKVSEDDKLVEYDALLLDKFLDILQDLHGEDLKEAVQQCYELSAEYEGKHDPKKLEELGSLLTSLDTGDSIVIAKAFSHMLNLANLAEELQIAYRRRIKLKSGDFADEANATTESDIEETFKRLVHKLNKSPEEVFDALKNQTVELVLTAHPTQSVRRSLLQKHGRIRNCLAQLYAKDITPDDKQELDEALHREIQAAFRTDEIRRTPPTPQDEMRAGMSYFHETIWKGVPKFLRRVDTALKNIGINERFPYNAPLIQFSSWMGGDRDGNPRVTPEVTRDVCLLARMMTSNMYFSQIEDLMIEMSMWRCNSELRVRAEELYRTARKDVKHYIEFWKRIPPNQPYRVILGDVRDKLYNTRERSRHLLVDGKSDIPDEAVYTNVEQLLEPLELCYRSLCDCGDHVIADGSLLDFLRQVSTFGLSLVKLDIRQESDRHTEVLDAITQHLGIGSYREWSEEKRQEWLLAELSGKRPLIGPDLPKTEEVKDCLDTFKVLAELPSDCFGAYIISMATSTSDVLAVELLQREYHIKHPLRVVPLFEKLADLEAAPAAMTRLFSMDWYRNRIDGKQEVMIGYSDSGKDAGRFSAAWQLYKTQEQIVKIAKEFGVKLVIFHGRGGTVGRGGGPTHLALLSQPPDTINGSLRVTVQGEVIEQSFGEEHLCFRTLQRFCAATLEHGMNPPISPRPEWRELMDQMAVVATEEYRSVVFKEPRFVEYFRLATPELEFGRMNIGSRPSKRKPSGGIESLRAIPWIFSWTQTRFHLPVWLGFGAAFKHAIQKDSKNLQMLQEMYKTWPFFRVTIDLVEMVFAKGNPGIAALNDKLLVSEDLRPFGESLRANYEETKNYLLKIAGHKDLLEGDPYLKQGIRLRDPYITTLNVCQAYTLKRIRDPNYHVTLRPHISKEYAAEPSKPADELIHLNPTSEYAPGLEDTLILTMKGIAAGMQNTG
Experimental: (§1) The binding affinities between small molecule compounds and PEPC enzymes were measured using a MicroCal iTC200 calorimeter (GE Healthcare). 18 injections (2 μl each) of 200 μM compound were injected into a sample cell containing 20 uM PEPC at 25 °C. The buffer of the compounds and the enzymes contained 50 mM Tris/HCl pH 7.5, 150 mM NaCl, 10 mM MgCl2. The data were analyzed with one-site-binding fitting using Origin software (MicroCal Inc.) to calculate the dissociation constant (Kd) of the small molecule inhibitors.

C4 PEPC mutant G884R = C4 PEPC mutant G884R (Flaveria trinervia, UniProt P30694, G884R); assay: Isothermal titration calorimetry, mutant G884R; format: binding
Experimental: as §1

[2] = tested on: human breast cancer cells; parameters: method as in PMID 11720850; details: higher; cited from earlier work
[3] = read-out: IC50 F. pringlei PEPC

C4 PEPC mutant G884R, sequence (P30694 whole entry G884R): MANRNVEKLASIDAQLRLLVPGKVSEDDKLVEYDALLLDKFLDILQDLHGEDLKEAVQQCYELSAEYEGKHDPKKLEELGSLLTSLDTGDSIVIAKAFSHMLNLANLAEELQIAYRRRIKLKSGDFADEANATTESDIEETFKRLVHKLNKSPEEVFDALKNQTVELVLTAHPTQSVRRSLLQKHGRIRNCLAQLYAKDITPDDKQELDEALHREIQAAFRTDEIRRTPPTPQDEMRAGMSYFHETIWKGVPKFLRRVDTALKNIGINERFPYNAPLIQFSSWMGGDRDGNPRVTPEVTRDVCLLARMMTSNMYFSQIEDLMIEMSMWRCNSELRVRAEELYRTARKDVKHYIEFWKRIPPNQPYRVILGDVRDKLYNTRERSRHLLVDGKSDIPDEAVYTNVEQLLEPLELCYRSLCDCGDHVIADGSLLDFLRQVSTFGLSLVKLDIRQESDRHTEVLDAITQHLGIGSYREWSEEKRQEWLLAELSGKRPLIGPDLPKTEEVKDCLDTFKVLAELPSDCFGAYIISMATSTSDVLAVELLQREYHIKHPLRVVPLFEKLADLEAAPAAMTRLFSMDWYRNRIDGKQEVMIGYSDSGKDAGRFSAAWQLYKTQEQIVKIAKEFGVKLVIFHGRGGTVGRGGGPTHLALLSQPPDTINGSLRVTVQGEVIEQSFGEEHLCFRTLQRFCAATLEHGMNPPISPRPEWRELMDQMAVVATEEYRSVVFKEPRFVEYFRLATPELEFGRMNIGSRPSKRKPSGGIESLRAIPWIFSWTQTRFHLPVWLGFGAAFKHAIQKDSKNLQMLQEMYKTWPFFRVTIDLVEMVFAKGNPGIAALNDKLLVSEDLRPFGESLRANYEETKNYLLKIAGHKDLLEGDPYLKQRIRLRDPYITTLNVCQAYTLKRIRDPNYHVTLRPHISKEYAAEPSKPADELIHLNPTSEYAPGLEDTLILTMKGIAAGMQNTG

| SMILES | IC50 (F. pringlei PEPC; IC50 F. pringlei PEPC) | IC50 (F. pringlei PEPC; [3]) | also measured |
| --- | --- | --- | --- |
| O=C(/C=C/c1ccccc1)c1ccccc1 [Compound 1, trans-Chalcone] | 119 ± 4.6 µM | – | – |
| O=C(/C=C/c1ccccc1)c1ccccc1O [Compound 2, 2′-Hydroxychalcone] | 76.3 ± 1.9 µM | – | – |
| O=C(/C=C/c1ccc(O)cc1)c1ccccc1O [Compound 3, 2′,4-Dihydroxychalcone] | – | 64.2 ± 2.8 µM | – |
| O=C(/C=C/c1ccccc1)c1ccc(O)cc1O [Compound 4, 2′,4′-Dihydroxychalcone] | – | 53 ± 1.1 µM | – |
| O=C(/C=C/c1ccccc1)c1cc(O)ccc1O [Compound 5, 2′,5′-Dihydroxychalcone] | – | 105 ± 4.6 µM | – |
| O=C(/C=C/c1ccc(O)cc1)c1ccc(O)cc1O [Compound 6, 2′,4′,4-Trihydroxychalcone] | 57.8 ± 1.1 µM | – | – |
| O=C(/C=C/c1ccccc1O)c1ccc(O)cc1O [Compound 7, 2′,4′,2-Trihydroxychalcone] | – | 64.4 ± 1.1 µM | – |
| O=C(/C=C/c1ccc(O)c(O)c1)c1ccc(O)cc1O [Compound 8, 2′,4′,3,4-Tetrahydroxy-chalcone] | – | – | Kd [1]: 0.38 µM; Kd (C4 PEPC mutant G884R): 8.6 µM |
| O=C(/C=C/c1cc(O)c(O)c(O)c1)c1ccc(O)cc1O [Compound 9, 2′,4′,3,4,5-Pentahydroxychalcone] | – | – | Kd ([1]; ITC, wild-type (wtFt), no aspartate, read-out: Kd): 0.46 µM; Kd (C4 PEPC mutant G884R): 4.8 µM |
| O=C(/C=C/c1ccccc1)c1ccc(O)c(O)c1O [Compound 10, 2′,3′,4′-Trihydroxychalcone] | – | – | antiproliferative IC50 relative to IC50 for inhibition of C4 PEPC [2]: ~ 5 fold |
| O=C(/C=C/c1ccc(O)c(O)c1)c1c(O)cc(O)cc1O [Compound 11, 2′,4′,6′,3,4-Pentahydroxy-chalcone] | – | 8.2 ± 0.3 µM | – |
| O=C(/C=C/c1ccc(O)c(O)c1)c1ccc(O)c(O)c1O [Compound 12, 2′,3′,4′,3,4-Pentahydroxy-chalcone] | 26.8 ± 3.5 µM | – | Kd [1]: 0.26 µM; weaker Kd at 0.5 mM aspartate in comparison to no aspartate ([1]; ITC): ~ 5 fold; Kd (C4 PEPC mutant G884R): 5.4 µM |
